Data from patent US6287859A, “Identification, functional expression and chromosal localization of a sustained human proton-gated cation channel” (priority 1999, dated 2001).
pIC50, pKd: −log10 of the molar value. “Also recorded” adds a separate entry of the source. Read-outs that look alike come from different tables or passages of the source.

Tests used:
rASIC1A channel = target: T1, rASIC1A channel (Rattus norvegicus, UniProt P55926); experiment: Proton-activated rASIC1A current in Xenopus oocytes (voltage clamp and outside-out patch); format: cell-based
T1 construct: cDNA isolated from rat brain codes for a protein of 526 amino acids; expressed in transfected cells; host or cells: Xenopus laevis oocytes injected with cRNA
T1 sequence (P55926 1-526): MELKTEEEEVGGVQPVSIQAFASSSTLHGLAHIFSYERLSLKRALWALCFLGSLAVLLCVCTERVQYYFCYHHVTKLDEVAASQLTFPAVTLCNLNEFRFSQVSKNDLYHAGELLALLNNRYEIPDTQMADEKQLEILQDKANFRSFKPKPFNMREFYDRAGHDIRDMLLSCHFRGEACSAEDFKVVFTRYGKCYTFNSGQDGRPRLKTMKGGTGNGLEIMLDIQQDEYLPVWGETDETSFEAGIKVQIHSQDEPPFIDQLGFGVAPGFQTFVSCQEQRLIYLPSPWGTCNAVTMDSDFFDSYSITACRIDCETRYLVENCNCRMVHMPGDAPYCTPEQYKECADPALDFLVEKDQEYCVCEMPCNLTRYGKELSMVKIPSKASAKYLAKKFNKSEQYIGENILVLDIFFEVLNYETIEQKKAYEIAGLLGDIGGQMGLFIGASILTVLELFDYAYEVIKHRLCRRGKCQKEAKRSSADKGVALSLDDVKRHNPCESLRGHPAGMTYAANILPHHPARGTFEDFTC
Method: 0.25 ng of cRNA was injected into the Xenopus laevis oocytes and the recording microelectrodes for the imposed voltage and for the patch-clamp were installed two days after the injection. The bath solutions for the outside-out patch recordings and the pipettes for the outside-out patch and total cells recordings contained: 140 mM KCl (or NMDG), 2 mM MgCl2, 5 mM EGTA, 10 mM Hepes, pH 7.4 (with KOH). The pipettes for the outside-out patch recordings and the bath solutions for the outside-out patch and total cells recordings contained: 140 mM NaCl (or LiCl or NMDGCl), 2 mM MgCl2, 1.8 mM CaCl2, 10 mM Hepes, pH 7.4 (adjusted with HCl, NaOH, LiOH or TMAOH). The intracellular acidification of the oocytes was implemented by injecting […] of the internal solution at pH 2 or by perfusion and withdrawal of a bath medium containing 20 mM NH4 Cl. […] The data were sampled at 2 kHz and filtered at 500 Hz for the analysis (Logiciel Biopatch).

[1] = test system: proton-activated cationic channels of sensory neurons; conditions: refs [18], [19]; cited from earlier work
hASIC3 [2] = target: T2, hASIC3 (Homo sapiens, UniProt Q9UHC3); experiment: hASIC3 single channel currents in outside-out patches from transfected COS cells; format: cell-based; conditions: 100 μM, outside-out patch, -60 mV, resting pH 7.3
T2 construct: expressed in transfected cells; host or cells: COS cells (DEAE-Dextran, hASIC3-PCI with CD8 marker)
T2 sequence (Q9UHC3 1-531): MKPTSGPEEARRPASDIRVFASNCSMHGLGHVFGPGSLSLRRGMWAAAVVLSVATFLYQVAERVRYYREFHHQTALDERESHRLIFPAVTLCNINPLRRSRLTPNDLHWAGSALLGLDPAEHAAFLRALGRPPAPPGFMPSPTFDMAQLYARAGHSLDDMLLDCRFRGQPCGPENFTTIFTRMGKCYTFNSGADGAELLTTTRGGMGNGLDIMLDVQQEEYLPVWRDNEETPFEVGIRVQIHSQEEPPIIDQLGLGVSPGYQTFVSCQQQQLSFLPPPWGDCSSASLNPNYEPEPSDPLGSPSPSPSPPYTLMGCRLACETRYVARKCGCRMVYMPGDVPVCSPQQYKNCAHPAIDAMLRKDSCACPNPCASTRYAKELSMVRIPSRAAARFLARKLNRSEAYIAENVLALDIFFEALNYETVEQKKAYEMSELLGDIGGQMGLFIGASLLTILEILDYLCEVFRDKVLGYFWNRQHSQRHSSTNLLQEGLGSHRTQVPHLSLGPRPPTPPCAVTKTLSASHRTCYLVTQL
Excerpt: (§1) The vector containing the hASIC3 coding sequence was linearized with NotI and blunt ended with T4 DNA polymerase. After inactivation of the T4 DNA polymerase, the hASIC3 coding sequence was excised with EcoRI and subsequently subcloned into the EcoRI/SalI (blunt) digested PCI expression vector (Promega). COS cells, at a density of 20.000 cells per 35 mm diameter petri dish, were transfected with a mix of CD8 and hASIC3-PCI (1:5) using the DEAE-Dextran method. Cells were used for electrophysiological measurements one to three days after transfection. Successfully transfected cells were recognised by their ability to fix CD8-antibody-coated beads. Ion currents were recorded using either the whole cell or outside-out patch-clamp technique. The pipette solution contained (in mM): KCl 120, NaCl 30, MgCl2 2, EGTA 5, HEPES 10 (pH 7.2). The bath solution contained in mM: NaCl 140, KCl 5, MgCl2 2, CaCl2 2, HEPES 10 (pH 7.3). Changes in extracellular pH were induced by opening one out of six outlets of a microperfusion system in front of the cell or patch. Test solutions having a pH of less then 6 were buffered with 10 mM MES rather than HEPES but were identical to the control solution in all other respects. Experiments were carried out at room temperature (20-24° C.).

perception of acid taste = conditions: ref [2]; cited from earlier work
hASIC3 [3] = target: T2, hASIC3; experiment: H+-gated hASIC3 whole-cell current in transfected COS cells; format: cell-based
Excerpt: as §1

[4] = H+-activated current, pH change from pH 7.4 to pH 6, -70 mV, oocytes, outside-out patch at 0 mV, read-out: Kd, reversible block of the rASIC1A channel

CCN(c1nc(N)c(C(=O)NC(=N)N)nc1Cl)C(C)C [EIPA, ethylisopropylamiloride]
pKd (rASIC1A channel; [4]): 5.00 | Effect on the inflowing current activated by H+ in sensory neurons [1]: inhibited

N=C(N)NC(=O)c1nc(Cl)c(N)nc1N [amiloride]
pKd (rASIC1A channel): 5.00 | Effect on spontaneous hASIC3 channel activity at pH 7.3 (hASIC3 [2]): inhibited; also recorded: disappears | Effect on perception of acid taste (perception of acid taste): inhibits the perception of acid taste | Effect on the inflowing current activated by H+ in sensory neurons [1]: inhibited | pIC50 (hASIC3 [3]; cells clamped at -60 mV, currents as fraction of mean current in absence of drug, read-out: K0.5, dose-response curve for inhibition of hASIC3 current): 4.80 | Effect on the sustained hASIC3 current (hASIC3 [3]; COS cells): virtually not affected | pKd (hASIC3 [3]; transient current, COS cells, read-out: KD, inhibition of the transient hASIC3 current): 4.80

NC(=NCc1ccccc1)NC(=O)c1nc(Cl)c(N)nc1N [benzamil]
pKd (rASIC1A channel; [4]): 5.00

Nc1nc(N)c2nc(-c3ccccc3)c(N)nc2n1 [triamterene]
Effect on the sustained hASIC3 current (hASIC3 [3]; COS cells): virtually not affected | Effect on the transient hASIC3 current (hASIC3 [3]; transient current, COS cells): inhibited
